Data set [1] concerns P450 activity in human liver microsomes (HLM150). In words: Inhibitor phenotyping of bioactivation in human liver microsomes. It is filed as in vitro ADME.
Data set [2] can be described thus: FAERS search for hepatobiliary disorder cases involving meloxicam. Further details: species or system human.
A short description of data set [3]: BJC HealthCare electronic health record cohort: DILI hospitalizations. The settings on record: of 2800 DILI hospitalizations; 4570 hospitalizations prescribed meloxicam. Further details: species or system human.
For the next data set, the target named is T1, CYP1A2 (Homo sapiens, UniProt P05177).
T1 sequence (P05177 1-516): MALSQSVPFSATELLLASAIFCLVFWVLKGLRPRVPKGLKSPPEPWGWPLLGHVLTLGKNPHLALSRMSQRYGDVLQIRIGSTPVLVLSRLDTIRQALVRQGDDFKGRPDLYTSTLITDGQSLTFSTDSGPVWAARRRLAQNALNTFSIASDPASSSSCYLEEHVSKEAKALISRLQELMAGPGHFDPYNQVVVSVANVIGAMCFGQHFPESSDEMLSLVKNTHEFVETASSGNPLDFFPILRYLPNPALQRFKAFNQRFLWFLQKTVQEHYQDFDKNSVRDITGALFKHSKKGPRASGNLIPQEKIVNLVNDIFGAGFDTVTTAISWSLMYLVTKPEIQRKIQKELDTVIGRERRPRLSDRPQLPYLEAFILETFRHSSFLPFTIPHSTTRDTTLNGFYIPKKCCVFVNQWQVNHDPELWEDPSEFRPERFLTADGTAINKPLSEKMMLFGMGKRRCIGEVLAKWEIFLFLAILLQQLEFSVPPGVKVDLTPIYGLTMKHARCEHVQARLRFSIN
The settings on record: pH 7.4.

The conditions of data set [4]: patients; ref Gschwend et al., 2007; cited from earlier work.
The target in the next data set is CYP2C19 (Homo sapiens, UniProt P33261). The settings on record: 400 µM sudoxicam, 100 nM CYP2C19, 30 min.
The next data set deals with CYP3A4 (Homo sapiens, UniProt P08684). The settings on record: 400 µM sudoxicam, 100 nM CYP3A4, 30 min.
Chain of CYP3A4 (P08684 whole entry): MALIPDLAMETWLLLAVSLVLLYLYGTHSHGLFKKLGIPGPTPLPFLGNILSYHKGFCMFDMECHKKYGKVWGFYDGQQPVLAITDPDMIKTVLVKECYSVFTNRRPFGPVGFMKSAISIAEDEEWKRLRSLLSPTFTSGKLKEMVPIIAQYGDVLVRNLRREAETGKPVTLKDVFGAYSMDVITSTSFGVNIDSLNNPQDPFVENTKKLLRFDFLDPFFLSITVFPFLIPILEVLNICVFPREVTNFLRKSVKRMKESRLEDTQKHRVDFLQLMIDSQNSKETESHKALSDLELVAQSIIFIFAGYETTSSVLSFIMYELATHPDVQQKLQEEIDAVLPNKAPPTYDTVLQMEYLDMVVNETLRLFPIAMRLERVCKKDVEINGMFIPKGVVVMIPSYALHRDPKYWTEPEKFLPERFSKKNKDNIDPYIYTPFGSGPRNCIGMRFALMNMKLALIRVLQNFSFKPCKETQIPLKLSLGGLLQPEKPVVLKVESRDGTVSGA
Substrate in data set [5]: CN1C(C(=O)Nc2nccs2)=C(O)c2ccccc2S1(=O)=O
In words: cells, lysate or membranes named. The settings on record: other: sudoxicam -> glyoxal (bioactivation), pH 7.4.

Substrate in data set [6]: Cc1cnc(NC(=O)C2=C(O)c3ccccc3S(=O)(=O)N2C)s1
Nature of the data set: cells, lysate or membranes named. The settings on record: other: meloxicam -> methylglyoxal (bioactivation), recombinant CYP 1A2; pH 7.4.

Several values for one entry are separate records, joined by “and”; a condition that tells them apart may be missing. Equal values may be shown once.

As for `O=c1cc(-c2ccccc2)oc2c1ccc1ccccc12` [ANF, α-naphthoflavone], the “effect on glyoxal formation (sudoxicam bioactivation)” value in data set [1] (16 µM ANF (CYP1A2 inhibitor), 10 µM sudoxicam, HLM150) is “increased significantly the extent of the reaction”.
In the case of `Cc1cnc(NC(=O)C2=C(O)c3ccccc3S(=O)(=O)N2C)s1` [meloxicam], the “hepatobiliary disorder cases resulting in death” value in data set [2] (FAERS, 1998 to 2020) is given as 39 cases. Besides, in data set [2] (human), the “serious cases of hepatobiliary disorders” value is 308 cases and the “total cases of hepatobiliary disorders” value is given as 326 cases. The “DILI hospitalizations that had been prescribed meloxicam” value in data set [3] is reported as 8 hospitalizations. Moreover, on CYP1A2, the “Scaled contribution of CYP1A2 (Vmax/Km)” value was 0.457 pmol/min/mg protein/µM substrate and the Vmax amounted to 1000 ± 53 pmol/min/nmol protein. Also, the “methylglyoxal formation in recombinant P450 screen” value on CYP1A2 (recombinant enzyme, 30 min, 400 µM) is listed as “only recombinant P450 to form detectable levels of methylglyoxal”. Also, the “Percent contribution of CYP1A2” value on CYP1A2 (recombinant enzyme) is 100%. For the same molecule, the maximum plasma levels in data set [4] is 3.2 µM.
Take `COc1ccc2[nH]c([S+]([O-])Cc3ncc(C)c(OC)c3C)nc2c1` (stereo not drawn) [omeprazole]: in data set [2] (human), the “share of total applicable hepatobiliary cases with concomitant drug” value amounted to 6%.
Same read-out and setting: the figure for `Cc1c(OCC(F)(F)F)ccnc1C[S+]([O-])c1nc2ccccc2[nH]1` (stereo not drawn) [lansoprazole] is 6%.
With `CN1C(C(=O)Nc2nccs2)=C(O)c2ccccc2S1(=O)=O` [sudoxicam, N-(2-thiazolyl)-4-hydroxy-2-methyl-2H-1,2-benzothiazine-3-carboxamide 1,1-dioxide], the “glyoxal formation in recombinant P450 screen” value on CYP2C19 and at CYP3A4 was “capable of catalyzing the reaction” throughout.
As to `Nn1nnc2ccccc21` [ABT, 1-aminobenzotriazole], in [1] (1 mM ABT, 10 µM meloxicam, HLM150 0.5 mg/mL, 40 min), the “blocked methylglyoxal formation (meloxicam bioactivation)” value is given as 85%.

B1: CYP2C19 (Homo sapiens) (protein)
chain: MDPFVVLVLCLSCLLLLSIWRQSSGRGKLPPGPTPLPVIGNILQIDIKDVSKSLTNLSKIYGPVFTLYFGLERMVVLHGYEVVKEALIDLGEEFSGRGHFPLAERANRGFGIVFSNGKRWKEIRRFSLMTLRNFGMGKRSIEDRVQEEARCLVEELRKTKASPCDPTFILGCAPCNVICSIIFQKRFDYKDQQFLNLMEKLNENIRIVSTPWIQICNNFPTIIDYFPGTHNKLLKNLAFMESDILEKVKEHQESMDINNPRDFIDCFLIKMEKEKQNQQSEFTIENLVITAADLLGAGTETTSTTLRYALLLLLKHPEVTAKVQEEIERVIGRNRSPCMQDRGHMPYTDAVVHEVQRYIDLIPTSLPHAVTCDVKFRNYLIPKGTTILTSLTSVLHDNKEFPNPEMFDPRHFLDEGGNFKKSNYFMPFSAGKRICVGEGLARMELFLFLTFILQNFNLKSLIDPKDLDTTPVVNGFASVPPFYQLCFIPV
For B1, the Michaelis constant (Km) in data set [5] (recombinant CYP 2C19) stood at 23 ± 5.2 µM.

B2: CYP1A2 (Homo sapiens) (protein)
chain: MALSQSVPFSATELLLASAIFCLVFWVLKGLRPRVPKGLKSPPEPWGWPLLGHVLTLGKNPHLALSRMSQRYGDVLQIRIGSTPVLVLSRLDTIRQALVRQGDDFKGRPDLYTSTLITDGQSLTFSTDSGPVWAARRRLAQNALNTFSIASDPASSSSCYLEEHVSKEAKALISRLQELMAGPGHFDPYNQVVVSVANVIGAMCFGQHFPESSDEMLSLVKNTHEFVETASSGNPLDFFPILRYLPNPALQRFKAFNQRFLWFLQKTVQEHYQDFDKNSVRDITGALFKHSKKGPRASGNLIPQEKIVNLVNDIFGAGFDTVTTAISWSLMYLVTKPEIQRKIQKELDTVIGRERRPRLSDRPQLPYLEAFILETFRHSSFLPFTIPHSTTRDTTLNGFYIPKKCCVFVNQWQVNHDPELWEDPSEFRPERFLTADGTAINKPLSEKMMLFGMGKRRCIGEVLAKWEIFLFLAILLQQLEFSVPPGVKVDLTPIYGLTMKHARCEHVQARLRFSIN
For B2, the Km in [6] is 40 ± 7.5 µM.

B3: CYP2C8 (Homo sapiens) (protein)
chain: MEPFVVLVLCLSFMLLFSLWRQSCRRRKLPPGPTPLPIIGNMLQIDVKDICKSFTNFSKVYGPVFTVYFGMNPIVVFHGYEAVKEALIDNGEEFSGRGNSPISQRITKGLGIISSNGKRWKEIRRFSLTTLRNFGMGKRSIEDRVQEEAHCLVEELRKTKASPCDPTFILGCAPCNVICSVVFQKRFDYKDQNFLTLMKRFNENFRILNSPWIQVCNNFPLLIDCFPGTHNKVLKNVALTRSYIREKVKEHQASLDVNNPRDFIDCFLIKMEQEKDNQKSEFNIENLVGTVADLFVAGTETTSTTLRYGLLLLLKHPEVTAKVQEEIDHVIGRHRSPCMQDRSHMPYTDAVVHEIQRYSDLVPTGVPHAVTTDTKFRNYLIPKGTTIMALLTSVLHDDKEFPNPNIFDPGHFLDKNGNFKKSDYFMPFSAGKRICAGEGLARMELFLFLTTILQNFNLKSVDDLKNLNTTAVTKGIVSLPPSYQICFIPV
As for B3, the Km in [5] (recombinant CYP 2C8) was 5 µM and 4.6 ± 0.89 µM.

The values are drawn from paper PMC7807415 (Toxicology letters, 2020).
